The subject of assay [1] is CCRF-CEM. Put plainly: In vitro anti-HIV screen using HIV-1 infected CD4 lymphocytes (CEM cell line), determines cytotoxicity. The note with it: Homo sapiens. The assay is classed as functional, cell-based.
The test system of another assay is Human gammaherpesvirus 4. Put plainly: In vitro antiviral activity against Epstein Barr virus (EBV) was determined. In kind it is functional, organism-based.
A further assay relates to Human alphaherpesvirus 1. Put plainly: In vitro antiviral activity against Herpes simplex virus (HSV-1) was determined. In kind it is functional, organism-based.
For another assay, the system named is Human alphaherpesvirus 2. In words: In vitro antiviral activity against Herpes simplex virus (HSV-2) was determined. The assay is classed as functional, organism-based.
The test system of the next assay is Human betaherpesvirus 5. In words: In vitro antiviral activity against Human cytomegalovirus (HCMV) was determined. In kind it is functional, organism-based.
In assay [2] the test system is CCRF-CEM. In words: Inhibitory concentration for spectrum antiviral activity against herpes viruses. The assay is classed as functional, cell-based. The note with it: Homo sapiens.
Another assay has as its system Tumor Cell line. In words: Test was to evaluate selectivity against individual tumor cell lines; NS= No selectivity. In kind it is functional, cell-based. The note with it: Homo sapiens.
The test system of a further assay is Human alphaherpesvirus 3. Put plainly: In vitro antiviral activity against Varicella zoster virus (VZV) was determined. The assay is classed as functional, organism-based.
Assay [3] concerns CCRF-CEM. In words: Test was to evaluate selectivity against individual tumor cell line Leukemia (CCRF-CEM). The assay is classed as functional. The following applies: Homo sapiens.
The next assay has as its system CAKI-1. In words: Test was to evaluate selectivity against individual tumor cell lines Renal cancer (CAKI-1). The following applies: Homo sapiens. In kind it is functional.
The next assay deals with DMS-114. Put plainly: Test was to evaluate selectivity against individual tumor cell lines Small cell lung cancer (DMS114). The assay is classed as functional. The note with it: Homo sapiens.
In assay [4] the test system is M19-MEL. In words: Test was to evaluate selectivity against individual tumor cell lines Melanoma (M19-MEL). The note with it: Homo sapiens. In kind it is functional.
For assay [5], the system named is Malme-3M. In words: Test was to evaluate selectivity against individual tumor cell lines Melanoma (MALME-3M). The note with it: Homo sapiens. In kind it is functional.
The test system of assay [6] is SK-MEL-5. In words: Test was to evaluate selectivity against individual tumor cell lines Melanoma (SK-MEL-5). In kind it is functional. The note with it: Homo sapiens.
The subject of the next assay is RPMI-8226. In words: Test was to evaluate selectivity against individual tumor cell line Leukemia (RPMI-8226). In kind it is functional. The following applies: Homo sapiens.
Assay [7] concerns M19-MEL. In words: est was to evaluate selectivity against individual tumor cell line Melanoma (M19-MEL). The note with it: Homo sapiens. In kind it is functional.
For assay [8], the system named is Malme-3M. Put plainly: est was to evaluate selectivity against individual tumor cell line Melanoma (MALME-3M). The assay is classed as functional. The following applies: Homo sapiens.
In the next assay the test system is NCI-H522. In words: Test was to evaluate selectivity against individual tumor cell line Non small cell lung cancer (NCI-H522). In kind it is functional. The note with it: Homo sapiens.
In the next assay the test system is SF-268. Put plainly: Test was to evaluate selectivity against individual tumor cell line CNS cancer (SF-268). The following applies: Homo sapiens. The assay is classed as functional.
Assay [9] relates to SK-MEL-5. Put plainly: est was to evaluate selectivity against individual tumor cell line Melanoma (SK-MEL-5). The following applies: Homo sapiens. In kind it is functional.

pEC50, pIC50: −log10 of the molar value. Active and inactive are the calls of the source. The calls are words filed in the database; no cut-off is given here. Bounds are passed on as bounds.

The record followed here is ChEMBL document CHEMBL1135020, “5-Bromo (or chloro)-6-azido-5,6-dihydro-2' -deoxyuridine and -thymidine derivatives with potent antiviral activity” (Bioorg Med Chem Lett, 2002).

The term pIC50 denotes −log10 of the IC50, conventionally taken in molar units. Read a low pIC50 as a high IC50. As a reminder, the pEC50 is −log10 of the EC50, conventionally taken in molar units. A lower pEC50 goes with a high EC50. As for `Nc1nc2c(ncn2COCCO)c(=O)[nH]1` [ACYCLOVIR], the pIC50 in the assay on CCRF-CEM [1] is below 3.36. The figures for the pEC50 with Human gammaherpesvirus 4, with Human alphaherpesvirus 1 and in the assay on Human alphaherpesvirus 2 were 5.40, 5.51 and 5.21, respectively.
In the assay with CCRF-CEM [1], `Nc1nc2c(ncn2COC(CO)CO)c(=O)[nH]1` [GANCICLOVIR] showed a pIC50 below 3.41. The same compound showed a pEC50 with Human betaherpesvirus 5 of 6.11.
Take `CC1(Cl)C(=O)NC(=O)N([C@H]2C[C@H](O)[C@@H](CO)O2)C1N=[N+]=[N-]` (some centres undefined): the pIC50 with CCRF-CEM [2] is 3.87; with CCRF-CEM [1], 3.95. Also, the pEC50 is below 4.90 with Human gammaherpesvirus 4, below 3.50 with Human alphaherpesvirus 1, below 3.50 in the assay with Human alphaherpesvirus 2 and below 4.30 in the assay on Human betaherpesvirus 5. Moreover, the result in the assay on Tumor Cell line was inactive.
`O=c1[nH]c(=O)n([C@H]2C[C@H](O)[C@@H](CO)O2)cc1Cl` [CHLORODEOXYURIDINE] had a pEC50 in the assay on Human alphaherpesvirus 1 of 4.82.
With `CC1(Br)C(=O)NC(=O)N([C@H]2C[C@H](O)[C@@H](CO)O2)C1N=[N+]=[N-]` (some centres undefined), the pIC50 with CCRF-CEM [2] is 3.85; in the assay with CCRF-CEM [1], 4.14. Further, the pEC50 in the assay with Human gammaherpesvirus 4 is 4.80; in the assay with Human alphaherpesvirus 1, below 3.56; with Human alphaherpesvirus 2, below 3.56; in the assay with Human alphaherpesvirus 3, 3.98; in the assay with Human betaherpesvirus 5, 4.82. The result in the assay with Tumor Cell line was inactive.
By GI50 is commonly meant the concentration at which growth is held to half of that of the control. Low readings indicate greater sensitivity of the cells, high ones lower sensitivity of the cells. For `[N-]=[N+]=NC1C(Br)C(=O)NC(=O)N1[C@H]1C[C@H](O)[C@@H](CO)O1` (some centres undefined), the pIC50 with CCRF-CEM [2] was 5.13; in the assay with CCRF-CEM [1], 3.90. The GI50 in the assay with CCRF-CEM [3] was determined as 38 µM; in the assay with CAKI-1, 66.3 µM; in the assay on DMS-114 it was 90.9 µM; in the assay with M19-MEL [4], 91.5 µM; in the assay on Malme-3M [5], 15.5 µM; in the assay on SK-MEL-5 [6] it was 42.2 µM. The GI50 in the assay on RPMI-8226 is 19.6 µM. Besides, the pEC50 in the assay on Human gammaherpesvirus 4 is 4.34; in the assay on Human alphaherpesvirus 1, 5.08; in the assay on Human alphaherpesvirus 2 it was 5.47; with Human alphaherpesvirus 3, 4.04; in the assay on Human betaherpesvirus 5, 4.94.
Consider `[N-]=[N+]=NC1C(Cl)C(=O)NC(=O)N1[C@H]1C[C@H](O)[C@@H](CO)O1` (some centres undefined), for which the values for the pIC50 in the assay with CCRF-CEM [2] and in the assay on CCRF-CEM [1] were 4.26 and below 3.49, respectively. Further, the GI50 with CCRF-CEM [3] came out at 26.3 µM; with M19-MEL [7], 52.4 µM; with Malme-3M [8], 13.1 µM; in the assay with NCI-H522, 5.37 µM; in the assay with SF-268, 93.3 µM; with RPMI-8226 it was 72.4 µM. Moreover, in the assay with SK-MEL-5 [9], halving of growth (GI50) required 12.3 µM. For the same compound, the pEC50 was 5.01 with Human gammaherpesvirus 4, 6.48 in the assay with Human alphaherpesvirus 1, 5.80 with Human alphaherpesvirus 2 and 4.54 with Human betaherpesvirus 5.
